Data from publication PMC9147274 (Pharmaceuticals, 2022).

Columns and labels:
MOLT-3 = test: Cytotoxicity toward MOLT-3, XTT assay; format: cell-based, human; conditions: for IC50: Homo sapiens, MOLT-3, XTT, 48 h; for SI (MOLT-3): (IC50 for MRC-5)/(IC50 for MOLT-3)
Procedure: (§1) DMSO was used as vehicle control. […] All experiments were performed in triplicate. […] Cells were exposed for 48 h.
(§2) Table S1 The cytotoxicity of triazole-cored derivatives toward various human lung carcinoma cell lines A549, Thai human cholangiocarcinoma cells HuCCA-1, T-cell acute lymphoblastic leukemia MOLT-3, and acute promyelocytic leukemia HL-60. The inhibitory activities were indicated as IC50 in micromolar scale (µM). The calculated selectivity indices (SI) were reported in square brackets.
(§3) Cancer Cell lines, IC50 (µM), [SI]

HuCCA-1 = test: Cytotoxicity toward HuCCA-1, MTT assay; format: cell-based, human; conditions: for IC50: Homo sapiens, HuCC-A1, HuCCA-1, MTT, 48 h
Procedure: as §1, §2, §3

A549 = test: Cytotoxicity toward A549, MTT assay; format: cell-based, human; conditions: for IC50: Homo sapiens, A549, MTT, 48 h
Procedure: as §1, §2, §3

HL-60 = test: Cytotoxicity toward HL-60, XTT assay; format: cell-based, human; conditions: for IC50: Homo sapiens, HL-60, XTT, 48 h; for SI (HL-60): (IC50 for MRC-5)/(IC50 for HL-60)
Procedure: as §1, §2, §3

[1] = Cytotoxicity toward MRC-5, MTT assay; format: cell-based; conditions: human, MRC-5 cells, MRC-5 normal cells
Procedure: as §1

HepG2 = test: Cytotoxicity toward HepG2, MTT assay; conditions: for Selectivity index (SI): IC50 MRC-5 / IC50 HepG2; for IC50: read-out: Cytotoxicity HepG2 IC50, HepG2, MTT; for IC50 / Cytotoxicity HepG2 Cell Viability at 25 µM: 72 h; for Cytotoxicity HepG2 Cell Viability at 25 µM: HepG2, 25 µM, MTT
Procedure: DMSO was used as vehicle control. […] All experiments were performed in triplicate. Data were expressed as the IC50 ± SD. […] Cells were exposed for 48 h.

HepG2 cells [2] = test: Detection of apoptosis (Muse Annexin V & Dead Cell Kit); format: cell-based, human; conditions: 48 h; for average percentage of apoptotic cells (total, early and late apoptosis): untreated 22.35 ± 0.07%
Procedure: Based on annexin V reactivity and the intensity of the 7-AAD fluorescence, cells can be classified into four categories: dead, live, early apoptosis, and late apoptosis. […] The detection of apoptosis was performed by the Muse® Annexin V & Dead Cell Kit according to the manufacturer’s protocol (Millipore, Billerica, MA, USA). […] An amount of 100 µL of HepG2 cells in suspension and 100 µL of Muse Annexin V & Dead Cell reagent were added to a 1.5 mL tube. The apoptosis was measured using the Muse cell analyzer and Muse analysis software (Millipore, Billerica, MA, USA). Cells were classified into four groups: live (Annexin V− and 7-AAD−), early apoptosis (Annexin V+ and 7-AAD−), late apoptosis (Annexin V+ and 7-AAD+), and dead or necrotic (Annexin V− and 7-AAD+). The apoptosis experiment was performed in duplicate.

HepG2 cells [3] = test: Cell-cycle analysis (propidium iodide, flow cytometry); format: cell-based, human; conditions: HepG2, 2 µM, 72 h
Procedure: The concentration of DMSO was kept at 0.5% v/v for all conditions. Cells were washed with PBS before they were harvested; 1 × 10^5 Cells were collected and fixed with 70% ice-cold ethanol, and then washed twice with ice-cold PBS. Afterward, the cells were treated with 100 g/mL of DNase-free RNase A (Sigma-Aldrich, St. Louis, MO, USA) in PBS containing 0.1% v/v Triton-X 100 (Sigma-Aldrich, St. Louis, MO, USA) for 5 min at room temperature and then stained with 20 g/mL propidium iodide (Life Technologies, Carlsbad, CA, USA) in PBS containing 0.1% v/v Triton-X 100 for 15 min at room temperature while protected from light. Cell-cycle distribution was then analyzed with a flow cytometer (Attune NxT, Thermo Fischer Scientific, Waltham, MA, USA). Data were analyzed with Attune NxT Software (Thermo Fischer Scientific, Waltham, MA, USA). All experiments were performed in triplicate. Student’s t-test was used for statistical analysis; p < 0.05 was considered statistically significant [96].

[4] = cited from earlier work
HepG2 cells [5] = test: Cell morphology by light microscopy; conditions: 48 h, 2.5-10.0 µM

Row | SMILES | IC50 (MOLT-3) | IC50 (HuCCA-1) | IC50 (A549) | IC50 (HL-60) | IC50 at 48 h [1] | also measured
1 | O=C(NCc1cn(-c2ccc(Br)cc2)nn1)Nc1ccc(Cl)c(C(F)(F)F)c1 [Compound 2j] | 53.4 ± 24.3 µM | 10.8 ± 0.36 µM | 33.8 ± 2.29 µM | 76 ± 22.6 µM | 60.7 ± 1.88 µM | 
2 | O=C(NCc1cn(-c2cccc(Br)c2)nn1)Nc1ccc(Cl)c(C(F)(F)F)c1 [Compound 2i] |  |  |  | 35.75 ± 0.34 µM | 53 ± 3.31 µM | 
3 | O=C(NCc1cn(-c2cccc(O)c2)nn1)Nc1ccc(Cl)c(C(F)(F)F)c1 [Compound 2o] | 28.3 ± 4.51 µM |  |  | 39.2 ± 2.72 µM |  | 
4 | Cc1ccc(-n2cc(CNC(=O)Nc3ccc(Cl)c(C(F)(F)F)c3)nn2)cc1 [Compound 2v] | 91.1 ± 1.66 µM |  |  | > 100 µM | 99.9 ± 0.9 µM | 
5 | O=C(NCc1cn(-c2ccccc2O)nn1)Nc1ccc(Cl)c(C(F)(F)F)c1 [Compound 2n] | 39.4 ± 3.52 µM |  |  | 51.1 ± 1.77 µM |  | 
6 | O=C(NCc1cn(-c2ccc(F)cc2)nn1)Nc1ccc(Cl)c(C(F)(F)F)c1 [Compound 2d] | 20.5 ± 1.23 µM | 55.4 ± 6.49 µM | 57.4 ± 8.36 µM | 35 ± 9.04 µM | 59.3 ± 1.96 µM | 
7 | Cc1cccc(-n2cc(CNC(=O)Nc3ccc(Cl)c(C(F)(F)F)c3)nn2)c1 [Compound 2u] |  |  |  | > 100 µM |  | 
8 | O=C(NCc1cn(-c2ccccc2F)nn1)Nc1ccc(Cl)c(C(F)(F)F)c1 [Compound 2b] | 25.3 ± 1.38 µM | 69.2 ± 19.2 µM | 77.3 ± 1.76 µM | 40.6 ± 4.64 µM | 73.5 ± 9.14 µM | 
9 | O=C(NCc1cn(-c2ccccc2C(F)(F)F)nn1)Nc1ccc(Cl)c(C(F)(F)F)c1 [Compound 2w] | 30.6 ± 0.8 µM |  |  | 34.5 ± 0.73 µM | 58.8 ± 0.39 µM | 
10 | O=C(NCc1cn(-c2ccc(C(F)(F)F)cc2)nn1)Nc1ccc(Cl)c(C(F)(F)F)c1 [Compound 2y, 1-(4-chloro-3-(trifluoromethyl)phenyl)-3-((1-(4-(trifluoromethyl)phenyl)-1H-1,2,3-triazol-4-yl)methyl)urea] | 18.1 ± 0.45 µM |  |  | 19.4 ± 0.5 µM | 58.6 ± 3.51 µM | SI (MOLT-3) (MOLT-3): 3.23; Selectivity index (SI) (HepG2): 9.81; IC50 (HepG2): 5.97 ± 2.14 µM; melting point: 199 to 200 °C; SI (HL-60) (HL-60): 3.02
11 | O=C(NCc1cn(-c2ccc(Cl)cc2)nn1)Nc1ccc(Cl)c(C(F)(F)F)c1 [Compound 2g] | > 100 µM | 33.6 ± 1.83 µM | 83 ± 2.7 µM | > 100 µM | 14.6 ± 4.17 µM | 
12 | O=C(NCc1cn(-c2ccccc2Cl)nn1)Nc1ccc(Cl)c(C(F)(F)F)c1 [Compound 2e] |  |  |  | 52.1 ± 13.9 µM | 61.4 ± 3.51 µM | 
13 | COc1ccc(-n2cc(CNC(=O)Nc3ccc(Cl)c(C(F)(F)F)c3)nn2)cc1 [Compound 2s] |  |  |  | > 100 µM | 21.2 ± 2.51 µM | 
14 | CC(=O)Nc1ccc(-n2cc(CNC(=O)Nc3ccc(Cl)c(C(F)(F)F)c3)nn2)cc1 [Compound 2u, N-(4-(4-((3-(4-chloro-3-(trifluoromethyl)phenyl)ureido)methyl)-1H-1,2,3-triazol-1-yl)phenyl)acetamide] |  |  |  |  |  | melting point: 238 to 239 °C
15 | O=C(NCc1cn(-c2ccccc2)nn1)Nc1ccc(Cl)c(C(F)(F)F)c1 [Compound 2a] | > 100 µM | > 100 µM | > 100 µM | > 100 µM | > 100 µM | 
16 | O=C(NCc1cn(-c2cccc(C(F)(F)F)c2)nn1)Nc1ccc(Cl)c(C(F)(F)F)c1 [Compound 2x, 1-(4-chloro-3-(trifluoromethyl)phenyl)-3-((1-(3-(trifluoromethyl)phenyl)-1H-1,2,3-triazol-4-yl)methyl)urea] | 27.8 ± 4.56 µM |  |  | 28.8 ± 7.46 µM | 63.2 ± 1.57 µM | SI (MOLT-3) (MOLT-3): 2.28; Cytotoxicity HepG2 Cell Viability at 25 µM (HepG2): 81%; melting point: 152 to 153 °C; SI (HL-60) (HL-60): 2.19
17 | O=C(NCc1cn(-c2ccc(I)cc2)nn1)Nc1ccc(Cl)c(C(F)(F)F)c1 [Compound 2m] | 29.9 ± 1.51 µM |  |  | 49.8 ± 7.19 µM | 49.9 ± 6.61 µM | 
18 | N#Cc1ccccc1-n1cc(CNC(=O)Nc2ccc(Cl)c(C(F)(F)F)c2)nn1 [Compound 2z, 1-(4-chloro-3-(trifluoromethyl)phenyl)-3-((1-(2-cyanophenyl)-1H-1,2,3-triazol-4-yl)methyl)urea] |  |  |  | 56.4 ± 10.9 µM | 59.7 ± 6.63 µM | Cytotoxicity HepG2 Cell Viability at 25 µM (HepG2): 66%; melting point: 162 to 163 °C; SI (HL-60) (HL-60): 1.06
19 | O=C(NCc1cn(-c2ccccc2F)nn1)Nc1ccc(Cl)c(C(F)(F)F)c1 [Compound 2b, 1-(4-chloro-3-(trifluoromethyl)phenyl)-3-((1-(2-fluorophenyl)-1H-1,2,3-triazol-4-yl)methyl)urea] |  |  |  |  |  | melting point: 168 to 169 °C
20 | O=C(NCc1cn(-c2ccccc2Br)nn1)Nc1ccc(Cl)c(C(F)(F)F)c1 [Compound 2h] |  |  |  | 37.7 ± 3.88 µM | 52.9 ± 3.1 µM | 
21 | Cc1ccccc1-n1cc(CNC(=O)Nc2ccc(Cl)c(C(F)(F)F)c2)nn1 [Compound 2t] |  |  |  | 45 ± 4.03 µM | 61.7 ± 3.22 µM | 
22 | O=C(NCc1cn(-c2cccc(Cl)c2)nn1)Nc1ccc(Cl)c(C(F)(F)F)c1 [Compound 2f] |  |  |  | 37.5 ± 2.23 µM | 63.8 ± 3.53 µM | 
23 | COc1cccc2c1C(=O)c1c(O)c3c(c(O)c1C2=O)C[C@@](O)(C(=O)CO)C[C@@H]3O[C@H]1C[C@H](N)[C@H](O)[C@H](C)O1 [Doxorubicin, reference compound] | 0.01 µM | 1.21 ± 0.04 µM | 0.47 ± 0.02 µM | 0.12 ± 0.02 µM | 2.26 µM | SI (MOLT-3) (MOLT-3): 226; Selectivity index (SI) (HepG2): 3.83; IC50 (HepG2): 0.59 ± 0.1 µM; SI (HuCCA-1) (HuCCA-1; (IC50 for MRC-5)/(IC50 for HuCCA-1)): 1.87; SI (A549) (A549; (IC50 for MRC-5)/(IC50 for A549)): 4.81; SI (HL-60) (HL-60): 18.83
24 | COc1cccc(-n2cc(CNC(=O)Nc3ccc(Cl)c(C(F)(F)F)c3)nn2)c1 [Compound 2r] |  |  |  | 42.8 ± 1.95 µM | 76.1 ± 9.18 µM | 
25 | O=C(NCc1cn(-c2cccc(F)c2)nn1)Nc1ccc(Cl)c(C(F)(F)F)c1 [Compound 2c] | 18.4 ± 0.36 µM | 44.9 ± 3.84 µM | 69.4 ± 2.44 µM | 34.1 ± 11.3 µM | 61.6 ± 3.63 µM | 
26 | COc1ccccc1-n1cc(CNC(=O)Nc2ccc(Cl)c(C(F)(F)F)c2)nn1 [Compound 2q] |  |  |  | 42.4 ± 2.18 µM | 68 ± 5.14 µM | 
27 | CNC(=O)c1cc(Oc2ccc(NC(=O)Nc3ccc(Cl)c(C(F)(F)F)c3)cc2)ccn1 [Sorafenib] |  | 33.2 ± 1.45 µM | 19.65 ± 0.01 µM | 5.35 ± 0.38 µM | 19.7 ± 1.68 µM | IC50 (HepG2): 5.97 ± 0.71 µM; Late Apop./Dead (late stage apoptotic cells) (HepG2 cells [2]; HepG2, 2.5 µM): 7.60%; average percentage of apoptotic cells (total, early and late apoptosis) (HepG2 cells [2]; HepG2, 2.5 µM): 24.55 ± 0.28%; Late Apop./Dead (late stage apoptotic cells) (HepG2 cells [2]; HepG2, 10.0 µM): 13.65%; average percentage of apoptotic cells (total, early and late apoptosis) (HepG2 cells [2]; HepG2, 10.0 µM): 46.45 ± 0.78%; Effect on cell cycle (HepG2 cells [3]): induced S and G2/M phase cell-cycle arrest; bioavailability [4]: 38–49%; Cell morphology changes of HepG2 (HepG2 cells [5]): cell morphology changes (shrink and smaller in size) were observed after treating HepG2 with Sorafenib at 5.0 µM and 10.0 µM
28 | O=C(NCc1cn(-c2ccc(O)cc2)nn1)Nc1ccc(Cl)c(C(F)(F)F)c1 [Compound 2p] | 22.5 ± 1.85 µM | 87.43 ± 0.79 µM | 85.9 ± 7.24 µM | 32.9 ± 7.77 µM | 69.6 ± 5.66 µM | 
29 | O=C(NCc1cn(-c2cccc(I)c2)nn1)Nc1ccc(Cl)c(C(F)(F)F)c1 [Compound 2l] |  |  |  | 33.2 ± 0.58 µM | 49.2 ± 2.13 µM | 
30 | O=C(NCc1cn(-c2ccccc2I)nn1)Nc1ccc(Cl)c(C(F)(F)F)c1 [Compound 2k] |  |  |  | 37.4 ± 2.36 µM | 49.1 ± 2.95 µM | 
